Source: BigSolDB 2.1

CCCN(CCC)S(=O)(=O)c1ccc(C(=O)O)cc1
solubility (mole fraction)
Settings	283.15 K	288.15 K	293.15 K	298.15 K	303.15 K	308.15 K	313.15 K	318.15 K	323.15 K
in MTBE	0.00461	0.00531	0.00665	0.00801	0.00953	0.0111	0.0129	0.0156	0.0185
in acetone	0.013	0.0148	0.0176	0.0201	0.0234	0.0268	0.0312	0.035	0.0409
in ethanol	0.00506	0.00615	0.00797	0.00961	0.0117	0.015	0.0191	0.023	0.0279
in ethyl acetate	0.00382	0.00459	0.00548	0.00659	0.00821	0.00992	0.0118	0.0138	0.0164
in isobutanol	0.00363	0.00453	0.00573	0.00716	0.00904	0.0108	0.013	0.0158	0.0199
in isopropanol	0.00627	0.00759	0.0089	0.0106	0.0122	0.015	0.018	0.021	0.0258
in methanol	0.00365	0.00485	0.00609	0.00804	0.0105	0.0132	0.0166	0.0202	0.0248
in methyl acetate	0.00449	0.00544	0.00656	0.00794	0.00945	0.0112	0.0129	0.0152	0.0179
in n-butanol	0.00744	0.0089	0.0109	0.0131	0.0158	0.0186	0.022	0.026	0.0303
in n-butyl acetate	0.00308	0.0038	0.00474	0.00562	0.00653	0.00773	0.00972	0.0118	0.014
in n-pentanol	0.00879	0.0103	0.0123	0.0146	0.0171	0.0194	0.0228	0.0264	0.031
in n-propanol	0.00544	0.00656	0.00841	0.0108	0.0135	0.0163	0.0207	0.0246	0.0289
